In paper PMC12567248 (Pharmaceutics, 2025):
Where two headings read alike, the source gives them in different places.

Tests used:
[1] = Tissue distribution of syringic acid in liver and kidney; type: in vivo, Sprague Dawley rats; conditions: for Cmax / Tmax / half-life: Sprague Dawley, rat; for AUC0–72 / AUC0–∞: 100 mg kg^−1 syringic acid or equivalent amount in SYA@MIL-100(Fe)
Experimental: (§1) The reduction in the dosing for the intraperitoneal route is to prevent abdominal distress in the test animal post-administration.
After the blood collection from the test animals, the animals were euthanized, and the organs, such as the liver and kidneys, were taken. The organs were pat-dried and weighed to determine the amount of NSS to be used for homogenization (1 mL of NSS per 700 mg of organ). The organs were homogenized and mixed with equal amounts of absolute ethanol. The mixture was centrifuged at 5000 rpm for 10 min. The serum samples were supplemented with an equal amount of absolute ethanol to facilitate the precipitation of proteins. This procedure was performed until no precipitation occurred. The supernatant was allowed to dry under reduced pressure before HPLC analysis.
(§2) Samples were prepared using the mobile phase consisting of 80:20 water with 0.1% acetic acid: methanol. HPLC analysis was performed using a linear gradient elution at a flow rate of 1.0 mL min^−1. The gradient program started at 80:20 (water with 0.1% acetic acid: methanol) and linearly progressed to 40:60 over 10 min. The column oven temperature was maintained at 30 °C. Detection was carried out using a PDA detector set at 218 nm.

[2] = cited from earlier work
[3] = In vitro drug release study, sample and separation method, with release model fitting; type: physicochemical; conditions: 37.5 °C
Experimental: The release media used were ultrapure water, 0.1 N phosphate-buffered saline (PBS) pH 7.4 for simulated blood pH, PBS pH 6.8 for simulated intestinal fluid, and 0.1 N HCl pH 2.0 for simulated gastric fluid. […] The setup was stirred at 75 rpm at 37.5 ± 0.5 °C. […] A fresh amount of the media was used to compensate for the amount of the release media taken at every time point. The aliquots were centrifuged at 5000 rpm for 10 min. The supernatant liquid was stored for syringic acid quantification using HPLC analysis, while the pellets were returned to the setup. The cumulative amount of syringic acid released from the MIL-100(Fe) was utilized to predict and correlate the behavior of the in vitro release. The experimental data were fitted to five predictable models: zero-order, first-order, Higuchi, Korsmeyer–Peppas, and Hixson–Crowell models. Data fitting was performed by linear regression using Microsoft Excel. The correlation coefficient (r^2) was utilized as a criterion for selecting the best model that describes the release profile in the three media. An r^2 value close to 1 signifies the best correlation.

Male Sprague Dawley Rats = assay: Acute oral toxicity, OECD procedure 423; conditions: rat, in vivo
Experimental: Acute oral toxicity was analyzed in accordance with the OECD guidelines for testing chemical compounds using the acute toxic class method (OECD procedure 423). Prior to dosing, 1 mL of the blood was extracted from the test animals (Male Sprague Dawley Rats, 200–250 g) using the tail vein method and was submitted for alanine aminotransferase (ALT), aspartate aminotransferase (AST), and blood urea nitrogen (BUN), and creatinine level determinations for signs of liver and kidney damages, respectively. […] Since no test animals were recorded to show any signs of toxicity or death, an additional three test animals were given the same dose. […] After the 14 days of observation, the test animals were sedated using Zoletil 50 (50 mg tiletamine base, 50 mg zolazepam base, and 57.7 mg mannitol per mL) at a dose of 50 mg kg^−1 prior to blood extraction using the cardiac puncture method. The animals were euthanized using a carbon dioxide chamber. The blood samples were analyzed for liver and kidney functions. The major organs, such as the liver and kidneys of the test animals, were harvested for tissue mounting and histopathological analysis.

[4] = rabbits, printed as administered intravenously; cited from earlier work
[5] = Oral and intraperitoneal bioavailability, syringic acid in blood; type: in vivo, Sprague Dawley rats; conditions: Sprague Dawley, rat, serum; for AUC(0-t): read-out: AUC0–72 (converted)
Experimental: as §1
After the given time points, the test animals were sedated using Zoletil 50 (50 mg tiletamine base, 50 mg zolazepam base, and 57.7 mg mannitol per mL) at a dose of […] before blood extraction using the cardiac puncture method. The blood was allowed to clot and centrifuged at 4000 rpm at 4 °C for 5 min to obtain the serum. The sera were mixed with an equal amount of methanol to precipitate proteins and centrifuged again to obtain the deproteinized sera. The procedure was repeated until no precipitation with methanol occurred. The protein-free sera were dried under reduced pressure for prior analysis using HPLC.
as §2

## COc1cc(C(=O)O)cc(OC)c1O [Syringic Acid, 3,5-Dimethoxy-4-hydroxybenzoic acid]
[1]; 100 mg kg^−1, kidney, oral, read-out: maximum concentration (Cmax)
  Cmax: 105000 ± 9790 ng/g
[1]; 100 mg kg^−1, liver, oral
  Cmax: 163000 ng/g
[1]; ip, 25 mg kg^−1, kidney, intraperitoneal, read-out: Cmax
  Cmax: 218000 ± 8730 ng/g
[1]; ip, 25 mg kg^−1, liver, intraperitoneal, read-out: Cmax
  Cmax: 40100 ± 560 ng/g
[1]; kidney, ip, 25 mg kg^−1
  Tmax: 0.402 h
  half-life: 80.1 ± 54.5 h
[1]; kidney, po, 100 mg/kg
  Tmax: 0.47 h
  half-life: 0.626 ± 0.0782 h
[1]; kidney, po, 100 mg/kg, read-out: Cmax
  Cmax: 105000 ± 9790 ng/g
[1]; liver, ip, 25 mg kg^−1
  Tmax: 0.412 h
  half-life: 30.9 ± 18.4 h
[1]; liver, po, 100 mg/kg
  Tmax: 8.6 h
  half-life: 38.1 ± 13.5 h
[1]; liver, po, 100 mg/kg, read-out: Cmax
  Cmax: 16300 ± 3540 ng/g
[1]; kidney, oral
  AUC0–72: 77,103.33 ± 2531.03 μg min g^−1
  AUC0–∞: 78,035.27 ± 2458.81 μg min g^−1
[1]; liver, oral
  AUC0–72: 32,000.33 ± 3544.16 μg min g^−1
  AUC0–∞: 47,401.91 ± 8515.77 μg min g^−1
[2]
  Cmax: 4500 ± 40 ng/mL
  Tmax: 8 min
  area under the curve: 2010 ± 48.7 ng·h/mL
[3]; 0.1 N HCl, after 30 h
  cumulative release of syringic acid: 110.99%
[3]; PBS pH 6.8, after 30 h
  cumulative release of syringic acid: 110.93%
[3]; PBS pH 7.4, after 30 h
  cumulative release of syringic acid: 117.55%
[3]; water, after 30 h
  cumulative release of syringic acid: 94.67%
Male Sprague Dawley Rats
  BUN before administration: 14.71 ± 0.51 mg per dL
  SGOT before administration: 337.30 ± 34.87 units per liter
  SGPT before administration: 87.96 ± 14.9 units per liter
  serum creatinine before administration: 0.58 ± 0.01 mg per dL
[4]
  absolute bioavailability: 86.27%
[5]; ip, 25 mg kg^−1
  Tmax: 0.933 h
  half-life: 16.7 ± 6.83 h
  AUC(0-t): 72800 ng·h/mL
[5]; po, 100 mg/kg
  half-life: 1.98 ± 0.513 h
  AUC(0-t): 23600 ng·h/mL
